Test: Inhibition of ROCK-2 in human GTM3 cells measured up to 2 days by cell impedance assay

| Compound | EC50 |
| --- | --- |
| c1nc(N2CCCC2)c(N2CCCNCC2)nc1-c1cc2cn[nH]c2cn1 | 416 nM |
| CN(C)CC(O)CN1CCN(c2nc(-c3ccncc3)cnc2N2CCCC2)CC1 (configuration not stated) | 1500 nM |
| c1cc2[nH]ncc2cc1-c1cncc(N2CCCNCC2)n1 | 260 nM |
| CC(=O)NCC(O)CN1CCN(c2nc(-c3ccncc3)cnc2N2CCCC2)CC1 (configuration not stated) | 1700 nM |
| Cc1n[nH]c2ccc(-c3cncc(N4CCCNCC4)n3)cc12 | 380 nM |
| CC(=O)NCCCN1CCN(c2nc(-c3ccncc3)cnc2N2CCCC2)CC1 | 760 nM |
| OCCN1CCN(c2nc(-c3ccncc3)cnc2N2CCCC2)CC1 [2-(4-(6-(pyridin-4-yl)-3-(pyrrolidin-1-yl)pyrazin-2-yl)piperazin-1-yl)ethanol] | 680 nM |

— BindingDB's records for doi:10.1016/j.bmcl.2014.03.017 (Alcon Laboratories, 2014)
